In US4127656A, “Method of inhibiting lipogensis with 3-(benzoyl)oxiranecarboxamides” (Shell Oil Company, priority 1978, dated 1978):

Tests used:
[1] = tested on: lipogenesis (swine adipose tissue); experiment: inhibition of lipogenesis from glucose-U-14C in pig adipose tissue slices (percent inhibition of lipid synthesis); type: cell-based, pig (swine); conditions: Sus scrofa, 100 micrograms per milliliter, 37° C., 2 hours, triplicate, read-out: Percent Inhibition (of lipogenesis compared to control)
Description: (§1) The manner in which they cause this effect is not known with certainty; it is believed that they interfere with the synthesis of fatty acids in the tissues. Their effectiveness for this purpose has been ascertained by immersing samples of animal liver or adipose tissue in a liquid medium containing radioactive glucose and the test chemical, for a period of time, then isolating the lipid from the treated tissues and determining the up-take of the radioactive carbon by means of scintillation counting techniques. These tests were conducted in both liver and adipose tissue, because in some animals the primary site of lipogenesis appears to be liver tissue, while in others it appears to be adipose tissue. The test animals were pigs, chickens and sheep.
Described in more detail, the tests were conducted according to the following general procedure:
Tissue slices (200 milligrams for liver and 150 milligrams for adipose tissue) were incubated at 37° C. for 2 hours with shaking in 3 milliliters of Krebs-Ringer bicarbonate solution containing one-half the normal calcium ion concentration, 60 micromoles of glucose, 0.5 microCurie of glucose-U^14 C., 300 microunits of insulin, and 5% dimethyl sulfoxide (DMSO). The test compounds were added as a suspension in DMSO and were present at a concentration of 100 micrograms per milliliter of the incubation mixture.
The incubation was terminated by addition of 0.25 milliliter of 1 N sulfuric acid. The resulting mixture was extracted with a total of 25 milliliters of chloroform:methanol (2:1, v/v). The extracts were washed according to Folch et al. (J. Biol. Chem., 226, 497-509, (1957)), air dried, and counted in a liquid scintillation counter with 15 milliliters of counting fluid (two parts toluene containing 0.4% w/v New England Nuclear Omnifluor:one part Triton X-100). The tests were conducted in triplicate and were accompanied by control tests in which all ingredients,proportions and conditions were the same except that no test compound was included. From the date obtained were calculated the percent inhibition of lipid synthesis by the test compounds in each case.
Compound 1 was tested with respect to all of the animals. The other compounds were tested only with respect to the pig.
From these and other tests, it has been established that in pigs there is little lipogenic activity in the liver tissue. From these and other tests, it also has been established that swine adipose tissue utilizes glucose for lipogenesis, and to be the major site of fatty acid synthesis. The data obtained from the tests using adipose tissue and glucose are set out in Table 1, as the percent inhibition of lipogenesis compared to the results obtained in the control tests wherein only the test compound was omitted.

lipogenesis (liver) [2] = experiment: inhibition of glucose incorporation into lipid in chicken liver tissue slices; type: cell-based; conditions: 100 micrograms per milliliter, 37° C., 2 hours
Description: as §1
(§2) Described in more detail, the tests were conducted according to the following general procedure: […]
(§3) The incubation was terminated by addition of 0.25 milliliter of 1 N sulfuric acid. […] The extracts were washed according to Folch et al. (J. Biol. Chem., 226, 497-509, (1957)), air dried, and counted in a liquid scintillation counter with 15 milliliters of counting fluid (two parts toluene containing 0.4% w/v New England Nuclear Omnifluor:one part Triton X-100). […] From the date obtained were calculated the percent inhibition of lipid synthesis by the test compounds in each case. […]

lipogenesis (liver) [3] = experiment: inhibition of glucose incorporation into lipid in sheep liver tissue slices; type: cell-based; conditions: 100 micrograms per milliliter, 37° C., 2 hours
Description: as §1, §2, §3

[4] = tested on: lipogenesis (adipose tissue); experiment: inhibition of glucose incorporation into lipid in sheep adipose tissue slices; type: cell-based; conditions: 100 micrograms per milliliter, 37° C., 2 hours
Description: as §1, §2, §3

Row | SMILES | inhibition at 100 µg/mL [1] | other results
1 | C#CCNC(=O)[C@@H]1O[C@H]1C(=O)c1ccc(Cl)cc1 (relative stereo) [Compound 13, 3-(4-chlorobenzoyl)-N-(2-propynyl)oxiranecarboxamide(trans)] | 87% | –
2 | CC(C)NC(=O)[C@@H]1O[C@H]1C(=O)c1ccc(Cl)cc1 (relative stereo) [Compound 7, 3-(4-chlorobenzoyl)-N-(1-methylethyl)oxiranecarboxamide(trans)] | 90% | –
3 | NC(=O)[C@@H]1O[C@H]1C(=O)c1cccc([N+](=O)[O-])c1 (relative stereo) [Compound 8, 3-(3-nitrobenzoyl)oxiranecarboxamide(trans)] | 96% | –
4 | NC(=O)[C@@H]1O[C@H]1C(=O)c1ccc(F)cc1 (relative stereo) [Compound 15, 3-(4-fluorobenzoyl)oxiranecarboxamide(trans)] | 90% | –
5 | NC(=O)[C@@H]1O[C@H]1C(=O)c1ccc(Cl)cc1Cl (relative stereo) [Compound 16, 3-(2,4-dichlorobenzoyl)oxiranecarboxamide(trans)] | 91% | –
6 | CC(=O)Nc1ccc(C(=O)[C@@H]2O[C@H]2C(N)=O)cc1 (relative stereo) [Compound 11, 3-(4-acetamidobenzoyl)oxiranecarboxamide(trans)] | 23% | –
7 | O=C(c1ccc(Cl)cc1)[C@@H]1O[C@H]1C(=O)N1CCOCC1 (relative stereo) [Compound 10, (4-chlorophenyl) (3-(4-morpholinylcarbonyl)oxiranyl)methanone(trans)] | 77% | –
8 | C=CCNC(=O)[C@@H]1O[C@H]1C(=O)c1ccc(Cl)cc1 (relative stereo) [Compound 9, 3-(4-chlorobenzoyl)-N-(2-propenyl)oxiranecarboxamide(trans)] | 94% | –
9 | NC(=O)[C@@H]1O[C@H]1C(=O)c1ccc(Br)cc1 (relative stereo) [Compound 14, 3-(4-bromobenzoyl)oxiranecarboxamide(trans)] | 90% | –
10 | COc1ccc(C(=O)[C@@H]2O[C@H]2C(N)=O)cc1 (relative stereo) [Compound 12, 3-(4-methoxybenzoyl)oxiranecarboxamide(trans)] | 64% | –
11 | NC(=O)[C@@H]1O[C@H]1C(=O)c1cccc(C(F)(F)F)c1 (relative stereo) [Compound 17, 3-(3-(trifluoromethyl)benzoyl)oxiranecarboxamide(trans)] | 94% | –
12 | Cc1ccc(C(=O)[C@@H]2O[C@H]2C(N)=O)cc1 (relative stereo) [Compound 5, 3-(4-methylbenzoyl)oxiranecarboxamide(trans)] | 89% | –
13 | NC(=O)[C@@H]1O[C@H]1C(=O)c1ccc(Cl)c(Cl)c1 (relative stereo) [Compound 4, 3-(3,4-dichlorobenzoyl)oxiranecarboxamide(trans)] | 96% | –
14 | NC(=O)[C@@H]1O[C@H]1C(=O)c1ccc(Cl)cc1 (relative stereo) [Compound 1, 3-(4-chlorobenzoyl)oxiranecarboxamide(trans)] | 94% | inhibition of glucose incorporation into the liver (lipogenesis (liver) [2]): 54%; inhibition of glucose incorporation in the liver (lipogenesis (liver) [3]): 15%; inhibition of glucose incorporation in adipose tissue [4]: 65%
15 | NC(=O)[C@@H]1O[C@H]1C(=O)c1ccccc1 (relative stereo) [Compound 6, 3-(benzoyl)oxiranecarboxamide(trans)] | 91% | –
16 | CNC(=O)[C@@H]1O[C@H]1C(=O)c1ccc(Cl)cc1 (relative stereo) [Compound 3, 3-(4-chlorobenzoyl)-N-methyloxiranecarboxamide(trans)] | 96% | –
17 | CN(C)C(=O)[C@@H]1O[C@H]1C(=O)c1ccc(Cl)cc1 (relative stereo) [Compound 2, 3-(4-chlorobenzoyl)-N,N-dimethyloxiranecarboxamide(trans)] | 70% | –
